In article PMC5554444 (Cancer prevention research (Philadelphia, Pa.), 2011):
“And” between values parts separate entries of the source, which are not always exact repeats. Equal values may be shown once. One block for each compound: values may come before it.

What was measured:
MCF7 breast cancer cells = test: SRB assay, anti-proliferative potential; format: cell-based; settings: Homo sapiens, MCF7, 72 h, read-out: SRB assay IC50
MCF7 cells [1] = test: RT2 Profiler PCR array of 84 human cell cycle genes; format: cell-based
HL-60 cells = test: Expression of cell surface marker CD38 by flow cytometry; format: cell-based, human
human RXRα = biological target: T1, human RXRα (Homo sapiens, UniProt P19793); settings: COS-1 cells, 24 h
T1 sequence (P19793 1-462): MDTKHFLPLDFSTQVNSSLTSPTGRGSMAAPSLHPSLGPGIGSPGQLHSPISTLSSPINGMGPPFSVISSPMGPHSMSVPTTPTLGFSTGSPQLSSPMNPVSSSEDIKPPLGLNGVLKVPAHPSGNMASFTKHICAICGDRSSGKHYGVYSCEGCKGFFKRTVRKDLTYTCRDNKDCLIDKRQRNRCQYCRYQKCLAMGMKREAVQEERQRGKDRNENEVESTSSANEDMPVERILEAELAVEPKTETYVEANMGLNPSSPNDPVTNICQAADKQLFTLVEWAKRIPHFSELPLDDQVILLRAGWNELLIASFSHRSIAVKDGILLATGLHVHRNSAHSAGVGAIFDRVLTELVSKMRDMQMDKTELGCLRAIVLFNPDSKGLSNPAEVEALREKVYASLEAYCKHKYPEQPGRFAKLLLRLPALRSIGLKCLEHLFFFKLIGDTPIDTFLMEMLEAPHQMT

MCF7 cells [2] = test: Cell cycle distribution by NIM-DAPI flow cytometry; format: cell-based, human; settings: 2.5 μM
[3] = Absorption and distribution in rats after gavage; format: in vivo, rat; settings: 40 mg/kg by gavage, 3 h after first treatment, individual rats; listed as AM6-36
[4] = test system: MNU-induced mammary tumors; test: MNU-induced mammary tumor growth in Sprague-Dawley rats; format: in vivo, rat; settings: 10 mg/kg BW/day, six weeks, 10 rats/group, p = 0.1 Mann-Whitney
MCF7 cells [5] = test: Western blot of p53 and p21 protein; format: cell-based, human; settings: 1 μM, 8, 24 and 48 h
[6] = Caco-2 cell monolayer permeability; format: in vitro ADME; settings: human, Caco-2, pH 7.4
Caco-2 cell monolayer = Caco-2 cell monolayer permeability; format: in vitro ADME; settings: Caco-2

SMILES: CC[C@@]1(O)C(=O)OCc2c1cc1n(c2=O)Cc2cc3ccccc3nc2-1 [Camptothecin]
IC50 (MCF7 breast cancer cells): 1.41 nM

SMILES: C=C(c1ccc(C(=O)O)cc1)c1cc2c(cc1C)C(C)(C)CCC2(C)C [Bexarotene, reference compound]
Number of genes out of 84 with significantly altered expression (MCF7 cells [1]; 24 h, AM6-36 1 μM, bexarotene 100 μM, P <0.05): 9

SMILES: CC1=C(/C=C/C(C)=C\C=C\C(C)=C\C(=O)O)C(C)(C)CCC1 [Compound 9-cis-RA, 9-cis-Retinoic acid]
FL-1 positive cells (CD38) (HL-60 cells; HL-60 cells, 2 nM): 86.7%
CD38-expressing cell population (FL-1 positive) (HL-60 cells; HL-60 cells, 2000, 200, 20 nM): about 95%

Relative luciferase activity induction (human RXRα; 20 μM): 133.2 fold
RXRE assay, fold increase of relative luciferase activity over vehicle (human RXRα; 40 μM): 5.49±0.34 fold
Papp A→B at 5 µM [6]: 2.75 ± 0.78 ×10⁻⁶ cm/s
Papp A→B at 10 µM [6]: 5.52 ± 0.29 ×10⁻⁶ cm/s
Papp A→B at 25 µM [6]: 4.45 ± 0.71 ×10⁻⁶ cm/s
Papp B→A at 5 µM [6]: 3.95 ± 0.11 ×10⁻⁶ cm/s
Papp B→A at 10 µM [6]: 3.25 ± 0.71 ×10⁻⁶ cm/s
Papp B→A at 25 µM [6]: 8.26 ± 0.93 ×10⁻⁶ cm/s
Papp AP to BL, times slower than propranolol (Caco-2 cell monolayer): 10 fold
SMILES: Cl.Cl.NCCCn1c2c(c3ccc(N)cc3c1=O)C(=O)c1ccccc1-2 [Compound 3, 3-amino-6-(3-aminopropyl)-5,6-dihydro-5,11-dioxo-11H-indeno[1,2-c]isoquinoline dihydrochloride]
Cell cycle distribution (MCF7 cells [2]): S phase arrest
Serum 1-day [3]: 0.84 ± 0.01 μg/ml and 2.14 μM and 0.82 ± 0.004 μg/ml and 2.09 μM
Growth of MNU-induced mammary tumors [4]: clearly attenuated tumor growth
p21 protein expression (MCF7 cells [5]): moderate increase at 8 h, and incremental expression was observed at 24 and 48 h
p53 protein level (MCF7 cells [5]): increase of p53 at 8 h, followed by decreases at 24 and 48 h
Up-regulation of CDKN1A expression (MCF7 cells [1]; DNA microarray analysis): 35 fold
